In US12403161B2, “Compositions for drug delivery and methods of use thereof” (Stellular Bio, Inc., priority 2018, dated 2025):
Structures can show the parent of a compound that is named as a salt.

Tests used:
[1] = tested on: iPSC differentiation cultures on Laminin 521; assay: WNT agonist addition to iPSC directed differentiation (immunofluorescence); assay type: cell-based, human; settings: for Stage 1 differentiation efficiency at day 6 (CD31 and CD34 immunofluorescence): 0.6 μM CHIR98014 or 6 μM CHIR99021 for the first 48 hours
Description: WNT signaling is important during development. The GSK3 kinase inhibitors CHIR98014 and CHIR99021 act as WNT agonists. […] The control and CHIR98014 cultures were then transitioned to Stage 2, where the production and release of preMKs were tracked by immunofluorescence staining of CD41 and CD43.

human washed platelets = assay: Small-molecule loading of human washed platelets by passive diffusion; assay type: cell-based; settings: 100 μM, 1e7 platelets in 1 ml, ambient temperature, dialysis cassette
Experimental: 100 μM of Doxorubicin was used with a preparation of 1e7 platelets in 1 ml of buffer and incubated at ambient temperature for 30, 120, 240, and 1440 minutes under constant agitation on an orbital shaker in a dialysis cassette (Thermofisher #88400). […] A kinetic study was employed to understand the minimum and maximum amount of time necessary for doxorubicin encapsulation in the washed platelets.

[2] = tested on: iPSC differentiation cultures; assay: Order and timing of Stage 1 growth factor addition, preMK yields; assay type: cell-based, human; settings: Experiment B
[3] = tested on: iPSC 3D differentiation cultures; assay: Soluble Laminin 521 addition in 3D iPSC differentiation, preMK yields; assay type: cell-based, human; settings: for preMK yields in Stage 2 vs control without addition: addition at Day −1 or Day 6
Experimental: […] 24 hours later, the media was replaced with Stage 1 media and media exchanges were performed for 6 days. […] Media was then exchanged with Stage 2 media, with or without soluble Laminin 521. 24 hours later, daily half media exchanges were performed for up to 6 additional days.

In the case of Cc1c[nH]c(-c2cnc(NCCNc3ccc(C#N)cn3)nc2-c2ccc(Cl)cc2Cl)n1 [CHIR99021], the “Stage 1 differentiation efficiency at day 6 (CD31 and CD34 immunofluorescence)” value [1] is reported as “dramatic increase”.

In the case of COc1cccc2c1C(=O)c1c(O)c3c(c(O)c1C2=O)C[C@@](O)(C(=O)CO)C[C@@H]3O[C@H]1C[C@H](N)[C@H](O)[C@H](C)O1 [doxorubicin, Doxorubicin hydrochloride], the “incubation time sufficient to see detectable doxorubicin in platelets” value (human washed platelets) is reported as 30 min.

CHIR98014 was tested, and the “Stage 1 differentiation efficiency at day 6 (CD31 and CD34 immunofluorescence)” value [1] was “dramatic increase” and the “Stage 2 output (visual estimation of CD41+ cells)” value ([1]; 0.6 μM in first 48 hours of Stage 1) was “higher output”.

With “FGF2: basic fibroblast growth factor, Stage 1 media growth factor” the “requirement of growth factor during Stage 1 differentiation” value [2] was “critical for differentiation to proceed effectively”.

In the case of “Laminin 521: soluble recombinant human protein Laminin 521”, the “preMK yields in Stage 2 vs control without addition” value ([3]; 96-well U-bottom ultra-low adherent plate) is reported as “increased the preMK yields”, the “preMK yields in Stage 2 vs control without addition” value ([3]; agitated 6-well ultra-low adherent plate on orbital shaker) is reported as “increased the preMK yields” and the “Laminin 521 effect on preMK yields with single-cell passaged iPSCs” value ([3]; self-aggregation in NutriStem) is reported as “effect was amplified”.

B1: BMP4: bone morphogenic protein 4, Stage 1 media growth factor (protein, UniProt P12644 293-408, looked up)
Bone morphogenetic protein 4: SPKHHSQRARKKNKNCRRHSLYVDFSDVGWNDWIVAPPGYQAFYCHGDCPFPLADHLNSTNHAIVQTLVNSVNSSIPKACCVPTELSAISMLYLDEYDKVVLKNYQEMVVEGCGCR
With B1 the “requirement of growth factor during Stage 1 differentiation” value [2] was “dispensable beyond 24 hours”.
